Measurements reported in patent US6737383B1, “Herbicidal oxadiazolidines” (priority 1999, dated 2004).

Legend:
wild oat = test: Test B pre/postemergence wild oat; format: in vivo, Avena fatua
In short: (§1)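 Test chemicals in a non-phytotoxic solvent mixture with surfactant were sprayed preemergence onto planted seeds and postemergence onto plants 2 to 18 cm tall (1- to 4-leaf stage). After twelve to sixteen days in a greenhouse, injury was visually rated against untreated controls from 0 (no effect) to 10 (complete control).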

giant foxtail = test: Test B pre/postemergence giant foxtail; format: in vivo, Setaria faberii
In short: as §1

morningglory = test: Test B pre/postemergence morningglory; format: in vivo, Ipomoea hederacea
In short: as §1

purple nutsedge = test: Test B pre/postemergence purple nutsedge; format: in vivo, Cyperus rotundus
In short: as §1

rape = test: Test B pre/postemergence rape; format: in vivo, Brassica napus
In short: as §1

surinam grass = test: Test B pre/postemergence surinam grass; format: in vivo, Brachiaria decumbens
In short: as §1

cocklebur = test: Test B pre/postemergence cocklebur; format: in vivo, Xanthium strumarium
In short: as §1

corn = test: Test B pre/postemergence corn; format: in vivo, Zea mays
In short: as §1

wheat = test: Test B pre/postemergence wheat; format: in vivo, Triticum aestivum
In short: as §1

sugar beet = test: Test B pre/postemergence sugar beet; format: in vivo, Beta vulgaris
In short: as §1

crabgrass = test: Test B pre/postemergence crabgrass; format: in vivo, Digitaria sanguinalis
In short: as §1

pigweed = test: Test B pre/postemergence pigweed; format: in vivo, Amaranthus retroflexus
In short: as §1

[1] = Preemergence, Rate 62 g/ha, scale of 0 to 10 where 0 is no effect and 10 is complete control
[2] = Preemergence, Rate 125 g/ha, 0 is no effect, 10 is complete control
[3] = Preemergence, Rate 250 g/ha, scale 0 to 10, 0 is no effect, 10 is complete control
[4] = Preemergence, Rate 500 g/ha, scale 0 to 10 (0 no effect, 10 complete control)
[5] = Rate 250 g/ha, Postemergence, scale 0 to 10, 0 is no effect, 10 is complete control
[6] = Rate 500 g/ha, Postemergence, scale 0 to 10
[7] = Postemergence, Rate 125 g/ha, scale of 0 to 10 where 0 is no effect and 10 is complete control
[8] = Rate 62 g/ha, Postemergence, scale of 0 to 10 where 0 is no effect and 10 is complete control

CC(C)N(C(=O)n1oc(=O)n([C@@H](C)c2ccccc2)c1=O)c1ccc(Cl)cc1 [Compound 174]
Wild oats plant response rating (wild oat; [1]): 0 | Wild oats plant response rating (0 to 10 scale) (wild oat; [2]): 0 | Wild oats plant response rating (wild oat; [3]): 0 | Wild oats plant response rating (wild oat; [4]): 0 | Plant response rating, Wild oats (wild oat; [5]): 0 | Wild oats plant response rating (wild oat; [6]): 0 | Giant foxtail plant response rating (giant foxtail; [7]): 0 | Giant foxtail plant response rating (giant foxtail; [1]): 8 | Giant foxtail plant response rating (0 to 10 scale) (giant foxtail; [2]): 9 | Giant foxtail plant response rating (giant foxtail; [3]): 10 | Giant foxtail plant response rating (giant foxtail; [4]): 10 | Giant foxtail plant response rating (giant foxtail; [8]): 0 | Plant response rating, Giant foxtail (giant foxtail; [5]): 0 | Giant foxtail plant response rating (giant foxtail; [6]): 1 | Morningglory plant response rating (morningglory; [7]): 5 | Morningglory plant response rating (morningglory; [1]): 0 | Morningglory plant response rating (0 to 10 scale) (morningglory; [2]): 0 | Morningglory plant response rating (morningglory; [3]): 0 | Morningglory plant response rating (morningglory; [4]): 0 | Morningglory plant response rating (morningglory; [8]): 3 | Plant response rating, Morningglory (morningglory; [5]): 5 | Morningglory plant response rating (morningglory; [6]): 5 | Nutsedge plant response rating (purple nutsedge; [7]): 0 | Nutsedge plant response rating (purple nutsedge; [1]): 0 | Nutsedge plant response rating (0 to 10 scale) (purple nutsedge; [2]): 0 | Nutsedge plant response rating (purple nutsedge; [8]): 0 | Plant response rating, Nutsedge (purple nutsedge; [5]): 0 | Nutsedge plant response rating (purple nutsedge; [6]): 0 | Rape plant response rating (rape; [7]): 0 | Rape plant response rating (rape; [1]): 0 | Rape plant response rating (0 to 10 scale) (rape; [2]): 0 | Rape plant response rating (rape; [3]): 0 | Rape plant response rating (rape; [4]): 4 | Rape plant response rating (rape; [8]): 0 | Plant response rating, Rape (rape; [5]): 0 | Rape plant response rating (rape; [6]): 2 | B. signalgrass plant response rating (surinam grass; [7]): 0 | B. signalgrass plant response rating (surinam grass; [1]): 0 | B. signalgrass plant response rating (0 to 10 scale) (surinam grass; [2]): 0 | B. signalgrass plant response rating (surinam grass; [3]): 0 | B. signalgrass plant response rating (surinam grass; [4]): 4 | B. signalgrass plant response rating (surinam grass; [8]): 0 | Plant response rating, B. signalgrass (surinam grass; [5]): 0 | B. signalgrass plant response rating (surinam grass; Rate 500 g/ha, Postemergence, scale 0 to 10, 0 no effect, 10 complete control): 0 | Cocklebur plant response rating (cocklebur; [7]): 1 | Cocklebur plant response rating (cocklebur; [1]): 0 | Cocklebur plant response rating (0 to 10 scale) (cocklebur; [2]): 0 | Cocklebur plant response rating (cocklebur; [3]): 0 | Cocklebur plant response rating (cocklebur; [4]): 0 | Cocklebur plant response rating (cocklebur; [8]): 0 | Plant response rating, Cocklebur (cocklebur; [5]): 2 | Cocklebur plant response rating (cocklebur; [6]): 3 | Corn plant response rating (corn; [7]): 0 | Corn plant response rating (corn; [1]): 0 | Corn plant response rating (0 to 10 scale) (corn; [2]): 0 | Corn plant response rating (corn; [3]): 0 | Corn plant response rating (corn; [4]): 0 | Corn plant response rating (corn; [8]): 0 | Plant response rating, Corn (corn; [5]): 0 | Corn plant response rating (corn; [6]): 0 | Wheat plant response rating (wheat; [1]): 0 | Wheat plant response rating (0 to 10 scale) (wheat; [2]): 0 | Wheat plant response rating (wheat; [3]): 0 | Wheat plant response rating (wheat; [4]): 0 | Plant response rating, Wheat (wheat; [5]): 0 | Wheat plant response rating (wheat; [6]): 0 | Sugarbeets plant response rating (sugar beet; [7]): 0 | Sugarbeets plant response rating (sugar beet; [1]): 3 | Sugarbeets plant response rating (0 to 10 scale) (sugar beet; [2]): 3 | Sugarbeets plant response rating (sugar beet; [3]): 6 | Sugarbeets plant response rating (sugar beet; [4]): 6 | Sugarbeets plant response rating (sugar beet; [8]): 0 | Plant response rating, Sugarbeets (sugar beet; [5]): 6 | Sugarbeets plant response rating (sugar beet; [6]): 6 | Crabgrass plant response rating (crabgrass; [7]): 4 | Crabgrass plant response rating (crabgrass; [1]): 2 | Crabgrass plant response rating (0 to 10 scale) (crabgrass; [2]): 8 | Crabgrass plant response rating (crabgrass; [3]): 8 | Crabgrass plant response rating (crabgrass; [4]): 10 | Crabgrass plant response rating (crabgrass; [8]): 2 | Plant response rating, Crabgrass (crabgrass; [5]): 7 | Crabgrass plant response rating (crabgrass; [6]): 8 | Redroot pigweed plant response rating (pigweed; [7]): 4 | Redroot pigweed plant response rating (pigweed; [1]): 0 | Redroot pigweed plant response rating (0 to 10 scale) (pigweed; [2]): 6 | Redroot pigweed plant response rating (pigweed; [3]): 8 | Redroot pigweed plant response rating (pigweed; [4]): 9 | Redroot pigweed plant response rating (pigweed; [8]): 0 | Plant response rating, Redroot pigweed (pigweed; [5]): 6 | Redroot pigweed plant response rating (pigweed; [6]): 6
